Data from publication PMC9841531, “Indole Derivatives as New Structural Class of Potent and Antiproliferative Inhibitors of Monocarboxylate Transporter 1 (MCT1; SLC16A1)” (Journal of Medicinal Chemistry, 2022).

Experiments:
[1] = test system: MCT1-expressing A-549 cells; assay: MTT-based efficacy assay, 33 in combination with test compound, A-549; assay type: cell-based; conditions: for factor of sensitization of A-549 cells against 33: shift of concentration-effect curve of 33; for Increase Susceptibility toward 33 (Factor): supplement csv
Method: MCT1 inhibition anticipates challenging cancer cell energy supply and, thus, increases the efficacy of anticancer agents.
For this purpose, 10 μL of compounds 24 or 30 (50 nM, 100 nM, or 500 nM) was transferred onto a colorless flat-bottom 96-well microplate and complemented with 180 μL of a cell suspension containing either approximately 5,000 A-549 cells. A dilution series of compound 33 at concentrations between 50 nM and 50 μM was generated, and 10 μL of each concentration was transferred onto the plate. The observed effects of compounds 24 and 30 were compared to the effect of compound 33 alone on A-549. The plates were incubated for 72 h at 37 °C and a 5% CO2-humidified atmosphere, before subsequent processing with the regular MTT assay as described above.[43]

A-549 cells [2] = assay: PI/Annexin V-FITC apoptosis assay; assay type: cell-based; conditions: 5 μM
From the text: As compound 24 increased the sub-G1 cell cycle fraction of A-549 cells, we investigated its capability to induce apoptosis in a PI/Annexin V-FITC staining assay, as reported earlier.[44],[46]−[51] In short, cells that were stained with PI only were considered necrotic cells (Q1), while cells stained with both PI and Annexin V were late apoptotic (Q2), and cells stained with Annexin V only were early apoptotic (Q4). Cells negative on both PI and Annexin V were considered living cells (Q3).
A PI/Annexin V-FITC double staining method was used to carry out a flow cytometry-based apoptosis assay, as reported earlier.[44],[46]−[51] For this purpose, a PI/Annexin V-FITC apoptosis detection kit (BD Biosciences, Franklin Lakes, NJ) was used following the manufacturer’s instructions. A-549 cells were seeded onto 6-well plates with a density of 500,000 cells/well and incubated for 24 h at 37 °C under a 5% CO2-humidified atmosphere. Subsequently, the cells were exposed to compound 24 (5 μM) followed by a further incubation period of 24 h at 37 °C under a 5% CO2-humidified atmosphere. The cells were trypsinized, washed with PBS, and resuspended in 1x binding buffer (1,000,000 cells/mL). One hundred microliters of test solution containing 100,000 cells treated with a mixture of PI (5 μL) and Annexin V-FTIC (5 μL) was incubated in the dark for 10–15 min at room temperature. Four hundred microliters of binding buffer was added, and the cells were resuspended again just before the flow cytometry analysis by using flow cytometry.

A-549 cancer cells = assay: MTT-based cell viability assay, A-549; conditions: Homo sapiens, A549, 72 h, read-out: A-549 cancer cell toxicity GI50 ± SEM
From the text: (§1) MCT1-expressing cells have an extraordinary energy demand and rely on pyruvate metabolism, through either lactate conversion or pyruvate consumption. Inhibition of MCT1 blocks lactate and pyruvate influx into cancer cells, which prevents their processing in the TCA cycle. Over time, the viability of cells exposed to an MCT1 inhibitor is impaired due to pyruvate deprivation, which is compensated by upregulating glucose metabolism—leading to an overconsumption of glucose. To confirm the antiproliferative nature of the indole derivatives, we investigated the compounds toward the MCT1-expressing cell lines A-549[14],[15] and MCF-7.[16] Cancer cell viability was assessed via a 3-(4,5-dimethylthiazol-2-yl)-2,5-diphenyltetrazolium bromide (MTT) assay, as reported earlier.[43]
(§2) To determine the growth inhibitory potential of compounds 17–32, […] of each compound either at concentrations between 1 and 100 μM (A-549 or MCF-7) or at 10 and 50 μM (NIH/3T3) was pipetted into colorless flat-bottom 96-well microplates. Thereafter, 180 μL of a cell suspension (5000 cells/well) of either A-549, MCF-7, or NIH/3T3 cells was added and subsequently kept for 72 h at 37 °C under a 5% CO2-humidified atmosphere. The cell viability as well as the GI50 values were determined as described above.[43]

A-549 cells [3] = assay: cell cycle distribution analysis, PI flow cytometry; assay type: cell-based; conditions: 5 μM, 24 h
Method: The antineoplastic agent 33 (5 μM) was used as a reference. […] Compound 24 caused a disruption of the cell cycle of A-549 cancer cells, indicated by a shift from the predominant G0/G1 phase (Figure 8A) to the apoptotic sub-G1 phase as well as the G2/M phase (Figure 8B). A similar G2/M arrest could be observed for reference compound 33 (Figure 8C); however, MCT1 inhibitor 24 led to a larger fraction of cells into the sub-G1 phase, indicating induced apoptosis. This experiment discovered that compound 24 inhibits cell proliferation, causing cell cycle arrest and, eventually, apoptosis. To confirm our findings, we conducted an apoptosis assay using compound 24.
A standard PI staining procedure was used as described earlier[44]−[46] to determine the effect of compounds 24 and 33 on cell cycle progression, followed by flow cytometry analysis (FACS Aria SORP and FACS Aria Fusion, BD Biosciences, Franklin Lakes, NJ). In brief, A-549 cells were seeded onto a 6-well plate (250,000 cells/well) and incubated for 24 h at 37 °C under a 5% CO2-humidified atmosphere before being observed under a microscope. The cells were treated with compound 24 (5 μM) or 33 (5 μM) and further incubated for 24 h at 37 °C under a 5% CO2-humidified atmosphere. Then, the cells were harvested and washed twice with cold PBS (Genetix Biotech Asia, New Delhi, India) before being fixed overnight in ice-cold 70% (v/v) ethanol at 4 °C. The cells were again washed two times with PBS and subsequently resuspended with RNase (100 μg/mL; HiMedia, Mumbai, India) and their DNA was stained with PI (40 μg/mL; Sigma-Aldrich, Mumbai, India) before being incubated in the dark for 10 min. The DNA content was measured at the Indian Institute of Technology Bombay (IITB, Mumbai, India) by applying flow cytometry.

ABCB1 (P-gp) = ABCB1 (P-gp) (Homo sapiens, UniProt P08183); assay: daunorubicin assay, ABCB1-expressing A2780/ADR cells; assay type: cell-based; conditions: human, ABCB1-expressing A2780/ADR cells, probe daunorubicin (3 μM final); relative to reference inhibitor 34 = 100%; read-out: maximal inhibition (Imax), ABCB1 daunorubicin
MCF-7 cancer cells = assay: MTT-based cell viability assay, MCF-7; conditions: Homo sapiens, MCF7, 72 h, read-out: MCF-7 cancer cell toxicity GI50 ± SEM
From the text: as §1, §2

ABCC1 = ABCC1 (Homo sapiens, UniProt P33527); assay: daunorubicin assay, ABCC1-expressing H69AR cells; conditions: screening at 10 μM, inhibitor if 20% (+SEM) reached
From the text: To provide a detailed picture of the pharmacological profile of the indole derivatives, we investigated their modulatory nature on the most prominent ABC transporters ABCB1 (P-glycoprotein, P-gp), ABCC1, (multidrug resistance-associated protein 1, MRP1), and ABCG2 (breast cancer resistance protein, BCRP). Here, we conducted calcein AM (ABCB1),[2],[52]−[59] daunorubicin (ABCC1),[52],[58]−[60] and pheophorbide A (ABCG2)[2],[52]−[60] assays using ABCB1-expressing A2780/ADR, ABCC1-expressing H69AR, and ABCG2-expressing MDCK II BCRP cells, respectively.
The calcein AM (ABCB1),[2],[52]−[59] daunorubicin (ABCB1[52],[60] and ABCC1[52],[58]−[60]), and pheophorbide A (ABCG2)[2],[52]−[60] assays were conducted as reported earlier. […] The data was processed using GraphPad Prism version 8.4.0, and IC50 values were determined, applying three- or four-parameter logistic equations, whatever was statistically preferred.

[4] = target: ABCB1 (P-glycoprotein, P-gp) (Homo sapiens, UniProt P08183); assay: daunorubicin assay, ABCB1-expressing A2780/ADR cells; assay type: cell-based; conditions: human, ABCB1-expressing A2780/ADR cells, probe daunorubicin (3 μM final); relative to reference inhibitor 34 = 100%; read-out: maximal inhibition (Imax), ABCB1 daunorubicin
Chain of ABCB1 (P-glycoprotein, P-gp) (P08183 whole entry): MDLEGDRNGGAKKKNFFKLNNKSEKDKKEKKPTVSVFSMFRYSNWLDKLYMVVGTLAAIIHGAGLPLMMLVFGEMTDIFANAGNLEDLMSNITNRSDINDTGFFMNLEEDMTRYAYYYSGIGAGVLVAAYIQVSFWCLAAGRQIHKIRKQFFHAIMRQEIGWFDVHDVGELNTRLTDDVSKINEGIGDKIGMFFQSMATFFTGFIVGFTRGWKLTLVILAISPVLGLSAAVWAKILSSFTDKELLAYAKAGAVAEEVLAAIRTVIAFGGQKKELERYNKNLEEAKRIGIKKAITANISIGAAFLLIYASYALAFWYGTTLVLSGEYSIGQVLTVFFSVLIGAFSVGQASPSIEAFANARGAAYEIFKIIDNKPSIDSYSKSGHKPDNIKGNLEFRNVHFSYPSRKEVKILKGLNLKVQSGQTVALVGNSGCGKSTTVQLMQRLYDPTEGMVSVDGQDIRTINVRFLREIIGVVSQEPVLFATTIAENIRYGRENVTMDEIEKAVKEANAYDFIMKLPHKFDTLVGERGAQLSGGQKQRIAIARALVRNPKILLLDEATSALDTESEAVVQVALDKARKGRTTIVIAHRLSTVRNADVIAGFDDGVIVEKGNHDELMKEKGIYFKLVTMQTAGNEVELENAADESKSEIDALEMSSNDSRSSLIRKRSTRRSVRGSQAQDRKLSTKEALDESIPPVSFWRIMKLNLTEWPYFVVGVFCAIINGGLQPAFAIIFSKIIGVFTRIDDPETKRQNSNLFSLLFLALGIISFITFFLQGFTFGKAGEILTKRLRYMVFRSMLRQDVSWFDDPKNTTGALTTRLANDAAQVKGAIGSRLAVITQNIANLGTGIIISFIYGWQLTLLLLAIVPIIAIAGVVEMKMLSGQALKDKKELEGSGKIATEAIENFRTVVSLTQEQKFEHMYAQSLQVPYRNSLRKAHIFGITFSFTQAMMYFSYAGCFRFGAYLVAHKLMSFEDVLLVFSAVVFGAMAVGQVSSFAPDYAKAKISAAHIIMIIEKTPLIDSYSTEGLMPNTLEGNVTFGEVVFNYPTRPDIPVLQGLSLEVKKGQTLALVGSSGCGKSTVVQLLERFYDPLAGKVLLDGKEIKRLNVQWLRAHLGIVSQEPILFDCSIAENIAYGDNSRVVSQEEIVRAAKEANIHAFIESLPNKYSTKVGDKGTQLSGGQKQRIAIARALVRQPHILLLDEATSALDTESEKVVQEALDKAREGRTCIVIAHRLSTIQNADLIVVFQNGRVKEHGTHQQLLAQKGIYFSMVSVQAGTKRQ

Chain of ABCC1 (P33527 whole entry): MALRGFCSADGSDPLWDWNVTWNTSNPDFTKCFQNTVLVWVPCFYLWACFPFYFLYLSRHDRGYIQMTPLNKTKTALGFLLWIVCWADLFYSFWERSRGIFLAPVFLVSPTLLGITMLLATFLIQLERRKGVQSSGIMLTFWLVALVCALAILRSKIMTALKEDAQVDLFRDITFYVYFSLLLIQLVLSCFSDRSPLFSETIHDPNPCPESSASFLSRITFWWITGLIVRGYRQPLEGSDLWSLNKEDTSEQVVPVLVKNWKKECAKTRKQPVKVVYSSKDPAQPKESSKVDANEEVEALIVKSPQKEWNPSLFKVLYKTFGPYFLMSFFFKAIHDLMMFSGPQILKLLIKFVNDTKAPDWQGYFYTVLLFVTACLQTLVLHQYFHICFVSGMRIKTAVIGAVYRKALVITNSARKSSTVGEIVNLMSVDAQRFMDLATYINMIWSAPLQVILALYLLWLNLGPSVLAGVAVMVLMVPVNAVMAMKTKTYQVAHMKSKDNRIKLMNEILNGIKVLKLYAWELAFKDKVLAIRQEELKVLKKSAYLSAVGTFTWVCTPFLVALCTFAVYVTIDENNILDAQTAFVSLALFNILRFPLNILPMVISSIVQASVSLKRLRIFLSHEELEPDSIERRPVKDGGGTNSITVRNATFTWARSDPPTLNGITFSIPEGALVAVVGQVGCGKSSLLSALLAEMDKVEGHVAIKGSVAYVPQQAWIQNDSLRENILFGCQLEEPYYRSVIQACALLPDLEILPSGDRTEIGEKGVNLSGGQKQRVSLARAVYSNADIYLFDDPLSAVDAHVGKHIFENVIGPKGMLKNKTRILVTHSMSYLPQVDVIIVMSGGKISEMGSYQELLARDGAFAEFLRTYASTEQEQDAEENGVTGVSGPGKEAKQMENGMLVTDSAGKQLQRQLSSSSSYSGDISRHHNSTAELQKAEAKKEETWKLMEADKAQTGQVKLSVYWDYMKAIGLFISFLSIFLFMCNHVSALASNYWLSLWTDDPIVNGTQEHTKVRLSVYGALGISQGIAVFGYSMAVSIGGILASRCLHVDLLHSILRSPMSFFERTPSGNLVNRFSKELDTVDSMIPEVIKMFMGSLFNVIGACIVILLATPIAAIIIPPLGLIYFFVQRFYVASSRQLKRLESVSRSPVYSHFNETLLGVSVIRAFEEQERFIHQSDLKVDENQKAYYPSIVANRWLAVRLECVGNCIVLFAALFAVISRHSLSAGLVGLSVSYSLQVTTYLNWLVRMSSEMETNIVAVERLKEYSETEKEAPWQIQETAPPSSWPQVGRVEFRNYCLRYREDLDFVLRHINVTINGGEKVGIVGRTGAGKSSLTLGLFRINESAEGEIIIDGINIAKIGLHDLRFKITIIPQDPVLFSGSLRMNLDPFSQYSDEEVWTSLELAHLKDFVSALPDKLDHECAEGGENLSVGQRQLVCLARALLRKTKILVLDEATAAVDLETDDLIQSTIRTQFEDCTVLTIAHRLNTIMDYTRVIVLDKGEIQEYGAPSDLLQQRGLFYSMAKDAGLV
Chain of ABCB1 (P-gp) (P08183 whole entry): as the sequence (P08183 whole entry) above

## COC(=O)/C(C#N)=C/c1cn(CC(=O)Nc2ccc(OC)cc2)c2ccccc12 [Compound 24, Methyl-2-cyano-3-(1-(2-((4-methoxyphenyl)amino)-2-oxoethyl)-1H-indol-3-yl) Acrylate]
[1]
  factor of sensitization of A-549 cells against 33: 2.5
  Increase Susceptibility toward 33 (Factor): 2.5
A-549 cells [2]
  factor of increase of total apoptotic cells vs untreated: 13
A-549 cells [2]; 24 h
  Q1 necrotic cells (PI only): 10.6%
  Q2 late apoptotic cells (PI and Annexin V): 5.08%
  Q3 living cells: 82.7%
  Q4 early apoptotic cells (Annexin V only): 1.60%
A-549 cells [2]; 24 h, untreated 0.51%
  percentage of total apoptotic cells: 6.68%
A-549 cancer cells
  GI50: 20 ± 0.6 µM
A-549 cells [3]
  cells in G0/G1 phase: 38.1%
  cells in G2/M phase: 22.3%
  cells in S phase: 18.0%
  cells in Sub-G1 phase: 20.6%
ABCB1 (P-gp)
  inhibition at 180 min: 84%
MCF-7 cancer cells
  GI50: 15.1 ± 0.4 µM
ABCC1
  ABCC1 inhibition: X (Compounds were considered as inhibitors if they reached 20% (+SEM) inhibition compared to the reference inhibitors 33–35; X = fulfilled)

## COC(=O)/C(C#N)=C/c1cn(CC(=O)Nc2ccc(C)cn2)c2ccccc12 [Compound 30, Methyl-2-cyano-3-(1-(2-((5-methylpyridin-2-yl)amino)-2-oxoethyl)-1H-indol-3-yl) Acrylate]
[1]
  factor of sensitization of A-549 cells against 33: 2.6
  Increase Susceptibility toward 33 (Factor): 2.6
A-549 cancer cells
  GI50: 19.3 ± 0.3 µM
[4]
  inhibition at 180 min: 93.3%
MCF-7 cancer cells
  GI50: 9.12 ± 0.22 µM
ABCC1
  ABCC1 inhibition: X (Compounds were considered as inhibitors if they reached 20% (+SEM) inhibition compared to the reference inhibitors 33–35; X = fulfilled)
